As a reminder, the pEC50 is the EC50 on a negative log10 scale, so that one unit is a factor of ten. As a reminder, the CC50 is the concentration at which the toxic effect on the cells reaches its halfway point.

pEC50: −log10 of the molar value. Where two headings read alike, the source gives them in different places.

Data on 14 compounds can be found in patent US8951985B2, “Compounds and pharmaceutical compositions for the treatment of viral infections” (Idenix Pharmaceuticals, Inc., priority 2011, dated 2015).

One data set relates to HCV genotype 1b replicon. In words: HCV replicon assay (HCV-REPL LUC), luciferase reporter. Type of data set: cell-based, hepatitis C virus. The protocol:
Huh-7-derived cell line (Zluc) that harbors an HCV genotype 1b replicon and a luciferase reporter gene was grown in Dulbecco's Modified Eagle Medium (DMEM) supplemented with 10% fetal bovine serum, 2 mM GlutaMAX, 1% MEM nonessential amino acids, 100 IU/mL penicillin, 100 μg/mL streptomycin, and 0.5 mg/mL Geneticin® (G418). For dose response testing the cells were seeded in 96-well plates at 7.5×10^3 cells per well in a volume of 50 μl, and incubated at 37° C./5% CO2. Drug solutions were made up freshly in Huh-7 media as 2× stocks. Ten additional 5-fold dilutions were prepared from these stocks in DMEM without G418. At least three hours after Zluc cells were seeded, drug treatment was initiated by adding 50 μL of drug dilutions to the plates in duplicate. […] Cells were then incubated at 37° C./5% CO2. Alternatively compounds were tested at two concentrations (10 nM and 100 nM). […] After 72 hours of incubation, the inhibition of HCV replication was measured by quantification of photons emitted after mono-oxygenation of 5′-fluoroluciferin to oxyfluoroluciferin by firefly luciferase. For this, media was removed from the plates via gentle tapping. Fifty microliters of ONE-glo luciferase assay reagent was added to each well. The plates were shaken gently for 3 min at room temperature and luminescence was measured on a Victor^3 V 1420 multilabel counter (Perkin Elmer) with a 1 second read time using a 700 nm cut-off filter. The EC50 values were calculated from dose response curves from the resulting best-fit equations determined by Microsoft Excel and XLfit 4.1 software.
Compounds presented in the table below were assayed according to the replicon assay described above.

Data set [1] is described as follows: Cytotoxicity evaluation, CellTiter-Blue Cell Viability Assay. Format: cell-based. The following applies: human, Zluc cells (Huh-7-derived HCV replicon cell line). Here is the method:
(§1) For cytotoxicity evaluation, Zluc cells were treated with compound as described above, and cell viability was monitored using the CellTiter-Blue Cell Viability Assay (Promega) by adding 20 μL of the assay solution to each well. The plates were then incubated at 37° C./5% CO2 for at least 3 hours. Fluorescence was detected in plates using excitation and emission wavelengths of 560 and 590 nm, respectively, in a Victor^3 V 1420 multilabel counter (Perkin Elmer) and CC50 values were determined using Microsoft Excel and XLfit 4.1 software.
(In general: Resazurin is reduced to fluorescent resorufin, in cell work by metabolically active cells.)

The test system of data set [2] is Zluc cells (Huh-7-derived cell line). Described as above. Type of data set: cell-based. The conditions noted are these: read-out: HCV Replicon CC50. Here is the method:
as §1
A general note: In antiviral work, replicon cells carry a viral genome segment that copies itself.

Setting [3] is: Hepatitis C virus, Huh-7, 72 h, read-out: HCV Replicon EC50, Zluc cells (Huh-7, HCV genotype 1b replicon, luciferase), 72 hours incubation.

On to `CCOC(=O)[C@H](Cc1ccccc1)NP(=O)(OCC(=O)OC(C)C)OC[C@H]1O[C@@H](n2cnc3c(OC)nc(N)nc32)[C@](C)(O)[C@@H]1O` (mixture of isomers) [Compound 2], for which the negative-log EC50 (pEC50) in the data set with HCV genotype 1b replicon (setting [3]) was 6.00 to 6.30. Also, in data set [1], the CC50 was no less than 100 µM.

Consider `CCOC(=O)[C@@H](NP(=O)(OCCC(=O)OC(C)(C)C)OC[C@H]1O[C@@H](n2cnc3c(OC)nc(N)nc32)[C@](C)(O)[C@@H]1O)C(C)C` (mixture of isomers) [Compound 6], for which the pEC50 in the data set on HCV genotype 1b replicon (setting [3]) is 5.30 to 6.00. The compound further displayed a 50% cytotoxic concentration (CC50) in data set [1] of no less than 100 µM.

For the compound `CCOC(=O)COP(=O)(N[C@H](C(=O)OC)C(C)C)OC[C@H]1O[C@@H](n2cnc3c(OCC)nc(N)nc32)[C@](C)(O)[C@@H]1O` (mixture of isomers) [Compound 7], the pEC50 in the data set on HCV genotype 1b replicon (setting [3]) is 5.30 to 6.00. In addition, the half-maximal cytotoxic concentration (CC50) in data set [1] is no less than 100 µM.

Regarding `CCOC(=O)COP(=O)(N[C@@H](CCSC)C(=O)OCC)OC[C@H]1O[C@@H](n2cnc3c(OC)nc(N)nc32)[C@](C)(O)[C@@H]1O` (mixture of isomers) [Compound 9], in the data set on HCV genotype 1b replicon (setting [3]), the negative logarithm of the EC50 (pEC50) is 5.30 to 6.00. The 50% cytotoxic concentration (CC50) in data set [1] was no less than 100 µM.

In the case of `COc1nc(N)nc2c1ncn2[C@@H]1O[C@H](COP(=O)(N[C@@H](CC(C)C)C(=O)OC(C)C)OCC(=O)NCc2ccc(F)cc2)[C@@H](O)[C@@]1(C)O` (mixture of isomers) [Compound 10], the pEC50 with HCV genotype 1b replicon (setting [3]) was 5.30 to 6.00. In data set [1], this compound registered a CC50 of no less than 100 µM.

Turning to `CCOC(=O)COP(=O)(N[C@@H](CC(C)C)C(=O)OC(C)C)OC[C@H]1O[C@@H](n2cnc3c(OC)nc(N)nc32)[C@](C)(F)[C@@H]1O` (mixture of isomers) [Compound 12], the negative logarithm of the EC50 (pEC50) in the data set on HCV genotype 1b replicon (setting [3]) was 6.00 to 6.30. In data set [1], this compound yielded a 50% cytotoxic concentration (CC50) of no less than 100 µM.

As to `CCOC(=O)COP(=O)(N[C@@H](CC(C)C)C(=O)OC(C)C)OC[C@H]1O[C@@H](n2cnc3c(OC)nc(N)nc32)[C@](C)(O)[C@@H]1O` (single isomer, unassigned) [Compound 11a], the pEC50 in the data set on HCV genotype 1b replicon (setting [3]) is 5.30 to 6.00. For the same compound, in data set [1], the cytotoxic concentration (CC50) is no less than 100 µM.

Take `CCOC(=O)COP(=O)(N[C@@H](CC(C)C)C(=O)OC(C)C)OC[C@H]1O[C@@H](n2cnc3c(OC)nc(N)nc32)[C@](C)(O)[C@@H]1O` (single isomer, unassigned) [Compound 11b]: the pEC50 in the data set with HCV genotype 1b replicon (read-out: HCV Replicon EC50, Zluc cells (Huh-7, HCV genotype 1b replicon, luciferase), 72 hours incubation) is greater than 6.30. The CC50 in data set [2] was in the range of 50 to 99 µM.

On to `COc1nc(N)nc2c1ncn2[C@@H]1O[C@H](COP(=O)(N[C@@H](C)C(=O)OC(C)C)OCC(=O)OC(C)C)[C@@H](O)[C@@]1(C)O` (stereo partly shown) [Compound 1], for which the negative-log EC50 (pEC50) in the data set with HCV genotype 1b replicon (setting [3]) is 5.30 to 6.00. Also, the CC50 in data set [1] was no less than 100 µM.

On to `CCOC(=O)COP(=O)(N[C@H](Cc1ccccc1)C(=O)OC(C)C)OC[C@H]1O[C@@H](n2cnc3c(OC)nc(N)nc32)[C@](C)(O)[C@@H]1O` (stereo partly shown) [Compound 3], for which the pEC50 with HCV genotype 1b replicon (setting [3]) was 5.00 to 5.30. In data set [1], this compound registered a 50% cytotoxic concentration (CC50) of no less than 100 µM.

Consider `COc1nc(N)nc2c1ncn2[C@@H]1O[C@H](COP(=O)(N[C@@H](CC(C)C)C(=O)OC(C)C)OC(C)C(=O)OCc2ccccc2)[C@@H](O)[C@@]1(C)O` (stereo partly shown) [Compound 4], for which, in the data set on HCV genotype 1b replicon (setting [3]), the pEC50 is 6.00 to 6.30. Besides, in data set [1], the CC50 was in the range of 50 to 99 µM.

In the case of `COc1nc(N)nc2c1ncn2[C@@H]1O[C@H](COP(=O)(N[C@@H](CC(C)C)C(=O)OC(C)C)OCCCC(=O)NCc2ccc(F)cc2)[C@@H](O)[C@@]1(C)O` (stereo partly shown) [Compound 5], the negative logarithm of the EC50 (pEC50) with HCV genotype 1b replicon (setting [3]) is 5.00 to 5.30. The same compound came in with a 50% cytotoxic concentration (CC50) in data set [1] of no less than 100 µM.

In the case of `CCOC(=O)COP(=O)(NC(C(=O)OCC)c1ccccc1)OC[C@H]1O[C@@H](n2cnc3c(OC)nc(N)nc32)[C@](C)(O)[C@@H]1O` (stereo partly shown) [Compound 8], in the data set on HCV genotype 1b replicon (setting [3]), the pEC50 was 5.00 to 5.30. In data set [1], this compound showed a CC50 of no less than 100 µM.

As to `CCOC(=O)COP(=O)(N[C@@H](CC(C)C)C(=O)OC(C)C)OC[C@H]1O[C@@H](n2cnc3c(OC)nc(N)nc32)[C@](C)(O)[C@@H]1O` (stereo partly shown) [Compound 11], the pEC50 with HCV genotype 1b replicon (setting [3]) is greater than 6.30. For the same compound, the half-maximal cytotoxic concentration (CC50) in data set [1] is no less than 100 µM.
